Test results published in patent US20190233884A1 (University of Southern California, priority 2016, published 2019).

Test system: patients with refractory metastatic colorectal cancer (mCRC)
Assay: PFS, OS and disease control in the training (evaluation) cohort of refractory mCRC patients receiving TAS-102 (n=52, Japan), by baseline characteristics, SNP genotype and toxicity
Assay type: in vivo, human
Conditions: for OS HR (95% CI)‡ / PFS HR (95% CI) ‡: multivariable; for OS HR (95% CI)† / PFS HR (95% CI) † / OS HR (95% CI) / PFS HR (95% CI): univariate
Procedure: All patients underwent the treatment in salvage-line setting. […]
(§1) Genomic DNA was extracted from peripheral whole blood in patients of all cohorts using the QIAmp Kit (Qiagen, Valencia, Calif., USA) according to the manufacturer's protocol (www.qiagen.com). The candidate SNPs were genotyped using PCR-based direct DNA sequence analysis by ABI 3100A Capillary Genetic Analyzer and Sequencing Scanner v1.0 (Applied Biosystems). Amplification of extracted DNA was carried out using both forward and reverse primers for each gene polymorphism as shown in Table 1. […] The investigators analyzing SNPs were blinded to the clinical data of the study patients.
The primary endpoint in this study was progression-free survival (PFS), and the secondary endpoints were overall survival (OS) and disease control rate (DCR). PFS was calculated from the date of starting treatment to the first observation of disease progression or death from any cause. If a patient had no disease progression or death, PFS was censored at the date of last follow up. OS was calculated from the date of starting treatment until the date of death from any cause or the date of the last follow-up, at which point OS was censored. The disease control rate (DCR) was defined as the proportion of patients who achieved a stable disease (SD) or […] according to RECISTv1.1. Chi-square test was used to examine the difference in baseline patient characteristics among the three cohorts. Allelic distribution of all SNPs by ethnicity for deviation from Hardy-Weinberg equilibrium and the allelic frequencies of SNPs were tested using the Chi-square tests with one degree of freedom. The associations between candidate SNPs and disease control, and toxicities were examined using contingency tables and Fisher's exact test. The associations of SNPs with PFS and OS were analysed using Kaplan-Meier curves and the log-rank test. Because the true mode of inheritance of candidate SNPs was not established yet, a codominant or dominant genetic model if appropriate was considered.
All patients underwent the treatment in salvage-line setting. […] In all patients, adverse events were graded according to the Common Terminology Criteria for Adverse Events, version 4.0. […]
as §1, with “tested” for “genotyped”, “Biosystems).” for “Biosystems). Amplification of extracted DNA was carried out using both forward and reverse primers for each gene polymorphism as shown in Table 1.”, “data.” for “data of the study patients.”
The primary endpoint in this study was progression-free survival (PFS), and the secondary endpoints were overall survival (OS) and disease control rate (DCR).

[1] = Che1 rs1564796 T/C and C/C grouped together
[2] = Che1 rs1564796 T/C and C/C grouped vs T/T
[3] = Evaluation cohort, Anemia grade <3
[4] = Evaluation cohort, Anemia grade ≥3
[5] = Evaluation cohort, Anemia grade ≥3 vs <3
[6] = Evaluation cohort, Anorexia grade <3
[7] = Evaluation cohort, Anorexia grade ≥3
[8] = Evaluation cohort, Anorexia grade ≥3 vs <3
[9] = Evaluation cohort, Diarrhea grade <3
[10] = Evaluation cohort, Diarrhea grade ≥3
[11] = Evaluation cohort, Diarrhea grade ≥3 vs <3
[12] = Evaluation cohort, Leukopenia grade <3
[13] = Evaluation cohort, Leukopenia grade ≥3
[14] = Evaluation cohort, Leukopenia grade ≥3 vs <3
[15] = Evaluation cohort, Nausea grade <3
[16] = Evaluation cohort, Nausea grade ≥3
[17] = Evaluation cohort, Nausea grade ≥3 vs <3
[18] = Evaluation cohort, Neutropenia grade <3
[19] = Evaluation cohort, Neutropenia grade ≥3
[20] = Evaluation cohort, Neutropenia grade ≥3 vs <3
[21] = FANCD2 rs6792811 G/A and G/G grouped together
[22] = FANCD2 rs6792811 G/A and G/G grouped vs A/A

Trifluridine/tipiracil [TAS-102]
OS HR (95% CI)‡ (CHEK2 rs22236142 G/C vs G/G): 0.55 (0.19, 1.58) | PFS HR (95% CI) ‡ (CHEK2 rs22236142 G/C vs G/G): 1.13 (0.55, 2.34) | OS HR (95% CI)† (CHEK2 rs22236142 G/C vs G/G): 0.78 (0.29, 2.11) | PFS HR (95% CI) † (CHEK2 rs22236142 G/C vs G/G): 1.43 (0.72, 2.84) | OS median, months (95% CI) (CHEK2 rs22236142 G/G): 8.1 (4.4, 14.8+) months | PFS median, months (95% CI) (CHEK2 rs22236142 G/G): 2.9 (1.6, 4.9) months | OS median, months (95% CI) (Che1 rs1045056 T/C): 12.4 (5.3, 12.4+) months | PFS median, months (95% CI) (Che1 rs1045056 T/C): 2.1 (1.2, 4.2) months | OS HR (95% CI)‡ (Che1 rs1045056 T/C vs T/T): 0.60 (0.19, 1.85) | PFS HR (95% CI) ‡ (Che1 rs1045056 T/C vs T/T): 1.70 (0.80, 3.64) | OS HR (95% CI)† (Che1 rs1045056 T/C vs T/T): 0.55 (0.18, 1.63) | PFS HR (95% CI) † (Che1 rs1045056 T/C vs T/T): 1.25 (0.61, 2.57) | OS median, months (95% CI) (Che1 rs1045056 T/T): 7.2 (5.4, 15.6+) months | PFS median, months (95% CI) (Che1 rs1045056 T/T): 2.9 (1.9, 3.5) months | OS median, months (95% CI) [1]: 12.4 (5.3, 12.4+) months | PFS median, months (95% CI) [1]: 2.1 (1.2, 4.6) months | OS HR (95% CI)‡ [2]: 0.60 (0.19, 1.87) | PFS HR (95% CI) ‡ [2]: 1.41 (0.65, 3.07) | OS HR (95% CI)† [2]: 0.56 (0.19, 1.68) | PFS HR (95% CI) † [2]: 1.17 (0.57, 2.40) | OS median, months (95% CI) (Che1 rs1564796 T/T): 7.2 (5.4, 15.6+) months | PFS median, months (95% CI) (Che1 rs1564796 T/T): 2.9 (2.0, 3.5) months | OS median, months (95% CI) [3]: 8.3 (5.7, 15.6+) months | PFS median, months (95% CI) [3]: 2.5 (2.0, 3.4) months | OS median, months (95% CI) [4]: 6.3 (2.0, 14.8+) months | PFS median, months (95% CI) [4]: 3.4 (1.5, 6.0+) months | OS HR (95% CI) [5]: 1.87 (0.74, 4.74) | PFS HR (95% CI) [5]: 0.70 (0.32, 1.53) | OS median, months (95% CI) [6]: 8.1 (5.7, 12.4+) months | PFS median, months (95% CI) [6]: 2.9 (2.1, 3.4) months | OS median, months (95% CI) [7]: 8.7 (1.4, 15.6+) months | PFS median, months (95% CI) [7]: 2.7 (0.9, 11.3) months | OS HR (95% CI) [8]: 0.85 (0.27, 2.69) | PFS HR (95% CI) [8]: 0.67 (0.27, 1.69) | OS median, months (95% CI) [9]: 8.3 (6.3, 12.4) months | PFS median, months (95% CI) [9]: 2.5 (2.0, 3.4) months | OS median, months (95% CI) [10]: 5.7 (2.0, 14.8+) months | PFS median, months (95% CI) [10]: 2.9 (1.8, 6.0+) months | OS HR (95% CI) [11]: 1.49 (0.49, 4.53) | PFS HR (95% CI) [11]: 0.88 (0.35, 2.26) | OS median, months (95% CI) [12]: 8.3 (4.9, 15.6+) months | PFS median, months (95% CI) [12]: 2.5 (1.9, 3.5) months | OS median, months (95% CI) [13]: 8.1 (5.7, 10.7+) months | PFS median, months (95% CI) [13]: 3.4 (1.6, 4.6) months | OS HR (95% CI) [14]: 0.73 (0.26, 2.01) | PFS HR (95% CI) [14]: 0.93 (0.45, 1.90) | OS median, months (95% CI) [15]: 8.1 (6.3, 14.8+) months | PFS median, months (95% CI) [15]: 3.3 (2.3, 3.7) months | OS median, months (95% CI) [16]: 5.7 (2.7, 12.4) months | PFS median, months (95% CI) [16]: 1.9 (1.6, 2.7) months | OS HR (95% CI) [17]: 1.58 (0.65, 3.83) | PFS HR (95% CI) [17]: 1.24 (0.62, 2.49) | OS median, months (95% CI) [18]: 6.3 (3.4, 15.6+) months | PFS median, months (95% CI) [18]: 2.1 (1.8, 3.0) months | OS median, months (95% CI) [19]: 8.3 (6.3, 14.8+) months | PFS median, months (95% CI) [19]: 3.4 (1.8, 4.9) months | OS HR (95% CI) [20]: 0.59 (0.24, 1.43) | PFS HR (95% CI) [20]: 0.68 (0.37, 1.28) | OS median, months (95% CI) (FANCD2 rs2272125 T/G): 7.2 (2.7, 7.8+) months | PFS median, months (95% CI) (FANCD2 rs2272125 T/G): 2.8 (1.6, 6.6+) months | OS HR (95% CI)‡ (FANCD2 rs2272125 T/G vs T/T): 1.38 (0.39, 4.90) | PFS HR (95% CI) ‡ (FANCD2 rs2272125 T/G vs T/T): 0.91 (0.35, 2.35) | OS HR (95% CI)† (FANCD2 rs2272125 T/G vs T/T): 1.66 (0.47, 5.83) | PFS HR (95% CI) † (FANCD2 rs2272125 T/G vs T/T): 0.98 (0.38, 2.51) | OS median, months (95% CI) (FANCD2 rs2272125 T/T): 8.3 (5.7, 15.6+) months | PFS median, months (95% CI) (FANCD2 rs2272125 T/T): 2.7 (2.1, 3.4) months | OS median, months (95% CI) (FANCD2 rs6792811 A/A): 8.7 (5.4, 14.8+) months | PFS median, months (95% CI) (FANCD2 rs6792811 A/A): 2.9 (2.1, 4.2) months | OS median, months (95% CI) [21]: 7.2 (3.3, 15.6+) months | PFS median, months (95% CI) [21]: 2.1 (1.5, 3.4) months | OS HR (95% CI)‡ [22]: 1.17 (0.48, 2.87) | PFS HR (95% CI) ‡ [22]: 1.43 (0.74, 2.74) | OS HR (95% CI)† [22]: 1.27 (0.52, 3.08) | PFS HR (95% CI) † [22]: 1.29 (0.68, 2.47) | Median OS (months) (JPN TAS-102 cohort, XRCC3 rs861539 G/G (n = 35)): 6.3 months | OS median, months (95% CI) (PCNA rs25406 A/A): 8.7 (5.3, 10.7+) months | PFS median, months (95% CI) (PCNA rs25406 A/A): 2.5 (1.4, 4.6) months | OS HR (95% CI)‡ (PCNA rs25406 A/A vs G/G): 0.55 (0.17, 1.84) | PFS HR (95% CI) ‡ (PCNA rs25406 A/A vs G/G): 0.65 (0.28, 1.51) | OS HR (95% CI)† (PCNA rs25406 A/A vs G/G): 0.67 (0.21, 2.19) | PFS HR (95% CI) † (PCNA rs25406 A/A vs G/G): 0.89 (0.39, 2.03) | OS median, months (95% CI) (PCNA rs25406 Any A): 8.1 (5.7, 15.6+) months | PFS median, months (95% CI) (PCNA rs25406 Any A): 3.3 (2.1, 3.5) months | OS HR (95% CI)‡ (PCNA rs25406 Any A vs G/G): 0.54 (0.22, 1.35) | PFS HR (95% CI) ‡ (PCNA rs25406 Any A vs G/G): 0.53 (0.27, 1.06) | OS HR (95% CI)† (PCNA rs25406 Any A vs G/G): 0.64 (0.26, 1.56) | PFS HR (95% CI) † (PCNA rs25406 Any A vs G/G): 0.74 (0.39, 1.42) | OS median, months (95% CI) (PCNA rs25406 G/A): 8.1 (5.7, 15.6+) months | PFS median, months (95% CI) (PCNA rs25406 G/A): 3.4 (1.9, 3.7) months | OS HR (95% CI)‡ (PCNA rs25406 G/A vs G/G): 0.54 (0.19, 1.52) | PFS HR (95% CI) ‡ (PCNA rs25406 G/A vs G/G): 0.46 (0.21, 1.02)
